Data taken from patent US8168596B2, “Use of cycloartane compounds for treating arthritis” (NuLiv Holding Inc., priority 2008, dated 2012).

Tests used:
Format in all cases: cell-based, human
MMP1 = experiment: Western blotting of MMP1 protein expression induced by IL-1β, PMA or TNF-α in SW1353 cells (Example 3); settings: AS4 0.01, 0.1 or 1 μM; PMA 100 ng/mL, IL-1β 10 ng/mL, TNF-α 10 ng/mL, 24 h
Method: Western blotting analysis was carried out based on the following procedure. Cells were washed and lysed in 0.2 mL of lysis buffer (1% NP-40, 50 mM Tris-HCl, pH 7.4, 180 mM NaCl, 1 mM EDTA, 1 mM PMSF, 1 mM NaF, 10 mM Na3VO4) for 30 min at 4° C. After centrifugation at 17500 g for 15 min, the supernatants of cell lysate were collected. Protein concentrations of the samples were measured using the bicinchoninic acid (BCA) protein assay kit according to the manufacturer's protocol (Pierce, Rockford, Ill., USA). Equal amounts of protein samples of concentrated conditioned medium (100 μg) or cell lysate supernatants (50 μg) were mixed with an appropriate volume of 4×SDS sampling buffer and separated on a 8% SDS-PAGE gel. The protein bands separated on the SDS-PAGE gel were blotted onto a polyvinylidene fluoride (PVDF) membrane. The blotted PVDF membrane was washed twice and blocked in freshly prepared Tris-buffered saline (TBS) containing 0.1% Tween-20 and 7% skim milk (TBST) for 2 hours at room temperature. The PVDF membrane was then incubated with a primary antibody against MMP1 protein (Santa Cruz Biotechnology, Santa Cruz, Calif.) for 18 hours at 4° C. Horseradish peroxidase-conjugated anti-goat antibody was used as the secondary antibody. Signals were visualized by an enhanced chemiluminescence kit (Clonetech, Palo Alto, Calif., USA) followed by exposure to X-ray films. […]

TIMP1 mRNA = experiment: RT-PCR of TIMP1 mRNA expression in SW1353 cells; settings: for TIMP1 mRNA expression after AS4 treatment followed by PMA: then 100 ng/mL PMA 24 h; for TIMP mRNA expression after only AS4 treatment: 24 h, no PMA
Method: First of all, the interaction between TIMP1 mRNA expression and MMP1 mRNA expression in human SW1353 cell line after only AS4 treatment was studied. […] The SW1353 cells were then collected for RT-PCR analysis.
In a second testing, the effect of AS4 treatment followed by PMA treatment was also studied. The SW1353 cells were first treated with astragaloside IV (AS4) at a concentration of 0.01 μM, 0.1 μM, or 1 μM, followed by incubation for 24 hours. Then PMA was added into each well, followed by incubation for 24 hours. These SW1353 cells were also collected for RT-PCR analysis in the end of the second testing.
Total RNAs were isolated from the cultured human cells using NucleoSpin RNAII Kit (Macherey-Nagel Inc., PA, USA). Five μg of RNA was reverse transcribed in a total 20 μl transcription mixture. The reaction tube containing primers (oligo(dT)), RNA, 10 mM dNTP Mix, and DEPC-treated water was first incubated at 65° C. for 5 minutes. Eight μl master reaction mixture containing 4 μl 5× cDNA synthesis Buffer, 1 μl 0.1 M DTT, 1 μl RNase OUT™ (40U/μl), 1 μl DEPC-Treated water, and 1 μl SuperScript™II was then added into the reaction tube. The reaction tube was then incubated at 50° C. for 60 minutes, followed by incubation at 85° C. for 5 minutes. Finally, 1 μl RNase H was added at 37° C. and the reaction tube was incubated for 20 minutes. The resulting cDNA was further amplified by PCR. The relevant primers for the following PCR reaction were listed below.
(ii) the TIMP1 forward primer is 5′-AATTCCGACCTCGTCATCAG-3′ (SEQ ID NO: 3) and the TIMP1 reverse primer is 5′-TGCAGTTTTCCAGCAATGAG-3′ (SEQ ID NO: 4); and
In addition, the PCR reaction of MMP1 cDNA was preformed as follows: 95° C. for 5 min, followed by 35 cycles of 94° C. for 30 sec, 60° C. for 30 sec, and 72° C. for 30 sec, and then 72° C. for 10 min followed by maintaining at 4° C. Similarly, the PCR reaction of TIMP1 cDNA was performed as follows: 94° C. for 5 min, followed by 35 cycles of 94° C. for 30 sec, 60° C. for 30 sec, and 72° C. for 30 sec, and then 72° C. for 10 min followed by maintaining at 4° C. The PCR reaction of GAPDH cDNA was performed as follows: 94° C. for 5 min, followed by 18 cycles of 94° C. for 30 sec, 54° C. for 30 sec, and 72° C. for 30 sec, and then 72° C. for 30 sec followed by maintaining at 4° C. These PCR products were analyzed by electrophoresis on a 1.5% gel.

SW1353 cells = experiment: Cell viability assay (Cell Counting Kit 8); settings: AS4 0.01-20 μM
Method: The culture medium was replaced every other day. After confluence, the cells were subcultured following trypsinization. For subcultures, cells were harvested after brief treatment with 0.1% trypsin/ethylenediaminetetraacetic acid (EDTA) solution and seeded at a dilution of 1:10. Cells between passages 12 and 45 were used for studies.
Then SW1353 cells were treated with astragaloside IV (AS4) at a concentration of 0.01 μM, 0.1 μM, 1 μM, 2 μM, 5 μM, 10 μM or 20 μM, followed by incubating for 24 hours or 48 hours. Later, the SW1353 cell culture in each well was treated with 10 μl Cell Counting Kit 8 solution (Dojindo molecular technologies, Gaithersburg, Md., USA), followed by incubation at 37° C. in a humidified incubator with 5% CO2 for 1-4 hours. Then, the absorbance of the SW1353 cell cultures was detected by an EIA reader at 450 nm. Compared with that of the control group, the viability of the experimental groups was analyzed.

CC(C)(O)[C@@H]1CC[C@](C)([C@H]2[C@@H](O)C[C@@]3(C)[C@@H]4C[C@H](O[C@@H]5O[C@H](CO)[C@@H](O)[C@H](O)[C@H]5O)[C@H]5C(C)(C)[C@@H](O[C@@H]6OC[C@@H](O)[C@H](O)[C@H]6O)CC[C@@]56C[C@@]46CC[C@]23C)O1 [AS4, Astragaloside IV]
level of expression of MMP1 protein with different inducers (MMP1): inhibited
TIMP1 mRNA expression after AS4 treatment followed by PMA (TIMP1 mRNA; AS4 0.01 μM 24 h): 1.36
TIMP mRNA expression after only AS4 treatment (TIMP1 mRNA; AS4 0.01 μM): 0.87
TIMP1 mRNA expression after AS4 treatment followed by PMA (TIMP1 mRNA; AS4 0.1 μM 24 h): 1.34
TIMP mRNA expression after only AS4 treatment (TIMP1 mRNA; AS4 0.1 μM): 0.90
TIMP1 mRNA expression after AS4 treatment followed by PMA (TIMP1 mRNA; AS4 1 μM 24 h): 1.31
TIMP mRNA expression after only AS4 treatment (TIMP1 mRNA; AS4 1 μM): 0.84
toxicity to SW1353 cells (SW1353 cells; 24 or 48 hours): non-toxic
cell proliferation compared with control group (SW1353 cells; 24 hours): did not change significantly
cell proliferation compared with control group (SW1353 cells; 48 hours): did not change significantly
